From PubChem BioAssay AID1996
≈ marks a conversion by molar mass, not a printed value.

details: buffer; pH 7.4; 200.0 µM

SMILES	solubility kinetic
O=C(O)c1cccc(CN2C(=O)c3ccccc3C2=O)c1	> 42.2 µg/mL
Cc1nn(C(=O)/C(C#N)=C/N(C)C)c(C)c1C	> 34.8 µg/mL
CC1CCCCC12NC(=O)N(CC(=O)Nc1ccc(OC(F)F)cc1)C2=O (stereo unspecified)	18.2 µg/mL (≈ 47.7 µM)
Cl.O=C(NN1C(=O)CSC1=S)c1cccnc1	> 43.5 µg/mL
CC(=O)Nc1nc(-c2cccc3ccccc23)cs1	5.3 µg/mL (≈ 19.8 µM)
Cc1ccc(CNC(=S)NCc2ccncc2)cc1	39.7 µg/mL (≈ 146 µM)
COc1ccc(OC)c(N2C(=O)CC(NNC(=O)c3ccc4c(c3)OCO4)C2=O)c1 (stereo unspecified)	> 62 µg/mL
O=C(CCC1CCN(Cc2ccccc2O)CC1)NC1CC1	42.6 µg/mL (≈ 141 µM)
COc1ccccc1NC(=O)COc1cccc2c1CCNC2=O	6.9 µg/mL (≈ 21.1 µM)
CCc1nc2oc3ccccc3c(=O)c2c(=O)n1-c1ccc(C)cc1	44.2 µg/mL (≈ 133 µM)
COC(=O)c1c(C)oc(C)c1S(=O)(=O)Nc1ccccc1	> 46.4 µg/mL
Cc1nc2ccccc2cc1C(=O)NCc1ccc(F)cc1	20.6 µg/mL (≈ 70 µM)
O=C1CN=C(c2ccccc2)c2ccccc2N1	27.2 µg/mL (≈ 115 µM)
CSc1nc(-c2ccccc2)cc(C)c1C#N	< 0.3 µg/mL
C/C(=C\c1ccc(N)cc1)c1nc2ccccc2[nH]1	> 37.4 µg/mL
CCN(CC)S(=O)(=O)c1ccc2nc(CCl)[nH]c2c1	> 45.3 µg/mL
CC(C)CC(=O)Nc1ccc(C(=O)COC(=O)C2CCC2)cc1	5.3 µg/mL (≈ 16.7 µM)
COC(=O)[C@H](CCSC)NC(=O)Nc1cc(OC)cc(OC)c1	> 51.4 µg/mL
CCN(CC)CCNC(=O)C(Oc1ccccc1)Oc1ccccc1	45.8 µg/mL (≈ 134 µM)
O=C(O)CCn1c(O)c(C=C2N=c3ccccc3=N2)sc1=S	> 50 µg/mL
O=Cc1cn(Cc2c(F)cccc2Cl)c2ccccc12	5.6 µg/mL (≈ 19.5 µM)
COc1ccc(NC(=S)/N=C(\N)Nc2nc(C)c3ccccc3n2)cc1	0.7 µg/mL (≈ 1.91 µM)
CC12CCC(=O)N1C(C(=O)NCc1ccccc1F)CS2 (stereo unspecified)	44.7 µg/mL (≈ 145 µM)
COc1ccccc1/C=C/CN1CCSCC1	> 37.4 µg/mL
CCCCc1nc2ccccc2[nH]1	> 26.1 µg/mL

SMILES	solubility kinetic
COc1ccc(NC(=O)CN(C)C2=NS(=O)(=O)c3ccccc32)cc1Cl	4.4 µg/mL (≈ 11.2 µM)
O=C(Nc1ccc(F)cc1)c1cccnc1	> 32.4 µg/mL
O=S(=O)(c1ccccc1)c1nc(-c2ccccc2)oc1N1CCOCC1	1.2 µg/mL (≈ 3.24 µM)
CN(C)C(CNC(=O)c1c(F)cccc1Cl)c1ccco1 (stereo unspecified)	> 46.6 µg/mL
Cc1cc(NC(=O)CS(=O)(=O)c2c[nH]c3ccccc23)no1	> 47.9 µg/mL
CC(CN1C(C)CCCC1C)OC(=O)c1ccc(Cl)cc1 (stereo unspecified)	> 46.5 µg/mL
Cc1cc(C)cc(NC(=O)c2cc(C)n(Cc3cccs3)c2C)c1	2.3 µg/mL (≈ 6.8 µM)
Cc1ccc2c(c1)CCCN2C(=O)CSc1ccccc1	19.5 µg/mL (≈ 65.6 µM)
Cc1ccccc1Cn1c(-c2ccc(=O)[nH]c2)nc2ccccc21	27.8 µg/mL (≈ 88.1 µM)
Cc1cc(=O)[nH]c(SCC(=O)NC2CCCCCC2)n1	> 44.3 µg/mL
Cc1cccc(OCc2ccc(C(=O)N3CCOCC3)o2)c1	> 45.2 µg/mL
Cc1cc(C(=O)COC(=O)c2ccc(NC(=O)CC#N)cc2)c(C)n1-c1ccc(OC(F)F)cc1	1.7 µg/mL (≈ 3.53 µM)
O=C(NCc1ccccn1)Nc1ccc(F)c(Cl)c1	> 42 µg/mL
Cc1noc(C)c1COc1cccc(C(=O)OC(C)C#N)c1 (stereo unspecified)	43.2 µg/mL (≈ 144 µM)
CCCOc1ccc(C(=O)NCC(C)(C)N2CCOCC2)cc1	> 48.1 µg/mL
COCC(C)NC(=S)N1CCN(c2ccccc2Cl)CC1 (stereo unspecified)	48.5 µg/mL (≈ 148 µM)
COCCCn1c(SCC(=O)NC2CCCC2)nnc1-c1ccncc1	> 56.3 µg/mL
COc1cc(OC)c(C(=O)OCC(=O)c2ccc3c(c2)NC(=O)CO3)cc1OC	4.9 µg/mL (≈ 12.2 µM)
CC(C)Sc1nc2c([nH]1)c(=N)ncn2Cc1ccccc1	> 44.9 µg/mL
CC(=O)c1ccc(NC(=O)Nc2cccc3ccccc23)cc1	0.4 µg/mL (≈ 1.31 µM)
O=C(/C=C/Nc1ccc(F)c(Cl)c1)c1ccccc1	0.7 µg/mL (≈ 2.54 µM)
Cc1cccc(N2N=C(C(=O)N3Cc4ccccc4CC3C(N)=O)CCC2=O)c1 (stereo unspecified)	> 58.6 µg/mL
CCCC(=O)N1CCN(c2nc3ccc(Cl)cc3s2)CC1	46.3 µg/mL (≈ 143 µM)
Cc1cc2nc(-c3ccc(=O)[nH]c3)n(Cc3ccccc3)c2cc1C	43.4 µg/mL (≈ 132 µM)
Cc1cccc(NC(=O)NC2(C)CCS(=O)(=O)C2)c1 (stereo unspecified)	> 42.4 µg/mL

SMILES	solubility kinetic
O=C(Cc1cccc(C(F)(F)F)c1)NCc1cccnc1	> 44.1 µg/mL
O=C(NC1CC1)c1sc2cc(F)ccc2c1Cl	9.4 µg/mL (≈ 34.8 µM)
Cc1cc(C(=O)Nc2ccc3ccccc3c2)c(C)o1	1.8 µg/mL (≈ 6.78 µM)
COCCNC(=O)C(OC(=O)c1ccco1)c1ccccc1F (stereo unspecified)	> 48.2 µg/mL
O=C1/C(=C/c2cccnc2)CC/C1=C\c1cccnc1	17.1 µg/mL (≈ 65.2 µM)
COc1ccc(CCC(=O)NC2CCC(C)CC2)cc1 (stereo unspecified)	22.2 µg/mL (≈ 80.6 µM)
C=CCn1cc(C(=O)OCC)c(=O)c2ccc(F)cc21	40.2 µg/mL (≈ 146 µM)
COc1ccc(CC(C)Nc2ccccc2F)cc1 (stereo unspecified)	< 0.6 µg/mL
NC(=O)c1ccccc1OCCOc1ccc(Br)cc1	5.1 µg/mL (≈ 15.2 µM)
C=CCN1C(=O)c2ccccc2C1(O)Cc1ccccc1 (stereo unspecified)	36.6 µg/mL (≈ 131 µM)
O=C1c2ccccc2C(O)(c2ccccc2)N1CCc1ccccc1 (stereo unspecified)	1.3 µg/mL (≈ 3.95 µM)
CC(C)N1CC(C(=O)Nc2cc(Cl)cc(Cl)c2)CC1=O (stereo unspecified)	> 47.3 µg/mL
CC(C)Oc1ccc(C(=O)CCN2CCOCC2)cc1	32.8 µg/mL (≈ 118 µM)
CC(Nc1c([N+](=O)[O-])c(=O)oc2ccccc12)c1ccccc1 (stereo unspecified)	8.8 µg/mL (≈ 28.4 µM)
Cc1ccccc1/C=C/c1nc2ccccc2c(=O)[nH]1	0.4 µg/mL (≈ 1.52 µM)
CC(Sc1nc2ccccc2[nH]1)C(=O)NC1CCCCC1C (stereo unspecified)	14.5 µg/mL (≈ 45.7 µM)
O=C(Nc1nc2ccccc2c(=O)s1)c1ccc(F)cc1Cl	0.9 µg/mL (≈ 2.69 µM)
COc1ccc(C)cc1S(=O)(=O)NNc1nc(C)cc(C)n1	> 48.4 µg/mL
COC(=O)c1ccccc1NC(=O)c1sc(Cl)nc1C	44 µg/mL (≈ 142 µM)
CS(=O)(=O)Nc1ccccc1N=C(c1ccccc1)c1ccccc1	23.2 µg/mL (≈ 66.2 µM)
COc1ccccc1-c1cc(C(=O)N2CCOCC2)no1	> 43.2 µg/mL
Cc1ccc(O)c(NC(=O)c2cc(C)no2)c1	> 34.8 µg/mL
COc1ccccc1N1CCN(C(=O)CSc2nnc(C)n2C2CC2)CC1	> 58.1 µg/mL
COc1cccc(NC(=S)N2CCC(Cc3ccccc3)CC2)c1	5.5 µg/mL (≈ 16.2 µM)
Cc1ccc(CN2CCN(Cc3ccc(OC(C)C)cc3)CC2CCO)o1 (stereo unspecified)	41.2 µg/mL (≈ 111 µM)

SMILES	solubility kinetic
COc1cccc(NC(=O)CN(C)C(=O)c2cc(C)on2)c1	> 45.5 µg/mL
CCc1c(C(=O)Nc2cc(C(=O)OC)ccc2C)csc1C	1 µg/mL (≈ 3.15 µM)
CC(C)CCNc1nc2ccccc2nc1NS(=O)(=O)c1cccs1	7.3 µg/mL (≈ 19.4 µM)
O=C(COC(=O)c1cnccn1)c1ccc(Cl)c([N+](=O)[O-])c1	> 48.3 µg/mL
O=C(Cn1cc([N+](=O)[O-])cn1)NC1CCCCCC1	> 39.9 µg/mL
CC(C)(CO)NCc1c(OCc2ccc(Cl)cc2)ccc2ccccc12.Cl	57.1 µg/mL
Cc1ccc(C)c(OCC(=O)Nc2ccccc2C(=O)NC2CC2)c1	0.9 µg/mL (≈ 2.66 µM)
COc1ccc(C(O)Cn2ccsc2=NC(C)=O)cc1 (stereo unspecified)	41.3 µg/mL (≈ 141 µM)
OC(c1nc2ccccc2[nH]1)C(O)C(O)C(O)c1nc2ccccc2[nH]1 (stereo unspecified)	1.4 µg/mL (≈ 3.95 µM)
Cc1cccc(Nc2nc(OCC#N)nc(N(C)C)n2)c1	2.8 µg/mL (≈ 9.85 µM)
N#CC(c1cccnc1)N1CCOCC1 (stereo unspecified)	> 30.5 µg/mL
Nc1cc(=O)[nH]c(SCC(=O)Nc2ccccc2-c2ccccc2)n1	> 52.9 µg/mL
Cc1ccnc(NCc2cccc3ccccc23)c1.Cl	15.8 µg/mL
O=C(O)c1nccnc1C(=O)Nc1ccccc1N1CCOCC1	> 49.2 µg/mL
NC(=O)c1cc(S(=O)(=O)NCCCc2ccco2)cs1	> 47.2 µg/mL
CC1CCCN(C2(O)C(=O)Nc3c(C(F)(F)F)cccc32)C1 (stereo unspecified)	> 47.1 µg/mL
Cc1ccc(CN(Cc2ccco2)C(=O)c2ccco2)cc1	35.4 µg/mL (≈ 120 µM)
COc1cccc(C2Nc3ccccc3C(=O)N2Cc2ccccc2)c1 (stereo unspecified)	17.3 µg/mL (≈ 50.2 µM)
CCOC(=O)NC(=O)CSc1ccc2ccccc2n1	42.5 µg/mL (≈ 146 µM)
O=S(=O)(c1cccc(C(F)(F)F)c1)N1CCN(c2cnccn2)CC1	25.1 µg/mL (≈ 67.4 µM)
CN(C)c1ccc(C(=O)OCC(=O)c2ccc[nH]2)cc1	7.8 µg/mL (≈ 28.6 µM)
COC(=O)c1ccn(CC(=O)NC2CCCCC2)n1	> 39.8 µg/mL
Cc1noc(C)c1C(=O)NCc1ccccc1F	34.7 µg/mL (≈ 140 µM)
COc1ccc(S(=O)(=O)NCC2CCCO2)cc1C(=O)O (stereo unspecified)	> 47.3 µg/mL
Cc1cccc(NC(=O)CN(CC2CCCO2)C(=O)c2cc(S(=O)(=O)N(C)C)ccc2F)c1C (stereo unspecified)	> 73.7 µg/mL

SMILES	solubility kinetic
Cc1ccc(S(=O)(=O)/N=C(/c2ccccc2)N(C)C)c(C)c1	> 47.5 µg/mL
Oc1ccc(-c2cnc(-c3ccc(O)cc3)nc2)cc1	1.7 µg/mL (≈ 6.43 µM)
O=C(C#Cc1ccccc1)NCc1ccccc1F	8.1 µg/mL (≈ 32 µM)
Cc1ccccc1C(=O)NCC(=O)N1CCN(C/C=C/c2ccccc2)CC1	> 56.6 µg/mL
COc1ccccc1CN1CCCCC1C(=O)O (stereo unspecified)	35.8 µg/mL (≈ 144 µM)
Cc1nc2ccccc2n1C(C)c1ccccc1 (stereo unspecified)	> 35.4 µg/mL
CCc1ccc(S(=O)(=O)NCc2csc(C)n2)cc1	> 44.5 µg/mL
CCN(Cc1ccccc1)C(=O)COC(=O)[C@@H]1CCCN1C(=O)c1cccs1	> 60.1 µg/mL
O=C(Nc1ccc(F)cc1)c1ccc(S(=O)(=O)N2CCCC2)cc1	4.4 µg/mL (≈ 12.6 µM)
CCCCN(CC)CCNC(=O)c1cc2c(=O)[nH]c3ccccc3c2n1C	43.9 µg/mL (≈ 119 µM)
O=C1/C(=C/c2ccccn2)SC(=S)N1c1ccc(O)cc1	0.5 µg/mL (≈ 1.59 µM)
COc1ccc(CNC(=S)Nc2ccc(Br)cc2)cc1	< 0.4 µg/mL
CN1CC(=O)Nc2ccc([N+](=O)[O-])cc2C1=O	> 35.3 µg/mL
CS(=O)(=O)NCCNc1ccc(C(F)(F)F)cc1[N+](=O)[O-]	30.3 µg/mL (≈ 92.6 µM)
COc1ccc(COC(=O)CCc2c[nH]c3ccccc23)cc1F	7.7 µg/mL (≈ 23.5 µM)
COc1ccc(C=O)cc1OC(=O)N1CCOCC1	> 39.8 µg/mL
COc1ccc(S(=O)(=O)N2CCN(Cc3cccnc3)CC2)cc1	> 52.1 µg/mL
O=C(NCCSCc1ccco1)c1ccc(=O)[nH]c1	38.2 µg/mL (≈ 137 µM)
COCC(C)N=C1SCCN1Cc1ccccc1 (stereo unspecified)	35.3 µg/mL (≈ 134 µM)
Cc1ccc(NCCC(=O)c2cccs2)cc1C	18.1 µg/mL (≈ 69.8 µM)
O=C(O)Cn1c(-c2ccccn2)nc2ccccc21	> 38 µg/mL
